Data on one molecule can be found in patent publication US4555504A, “Inclusion complex of β-cyclodextrin and digoxin” (Burroughs Wellcome Co., priority 1981, dated 1985).

Data set [1] is described as follows: Comparative dissolution of complexed and non-complexed digoxin (B.P. rotating basket). The settings on record: B.P. 1980 rotating basket, deionised water (1 liter), 37° C., HPLC. The format is physicochemical. As for the experimental part:
The dissolution rate of complexed (1:3 complex, Example 1) and non-complexed digoxin was determined in the British Pharmacopoeia rotating basket apparatus (B.P., 1980). The dissolution medium was deionised water (1 liter) at 37° C. A scoop containing sample (about […] of digoxin or about […] of digoxin/B-cyclodextrin complex) was added to the dissolution medium and allowed to settle to the base of the vessel. Samples (2 ml) were taken at intervals up to 60 minutes via a volumetric pippette and assayed by high performance liquid chromatography to determine cumulative percentage release of drug.

Data set [2] is described as follows: Comparative solubility of complexed and non-complexed cardiac glycosides in deionised water. As to conditions: shaken about 8 hours, ambient temperature, HPLC. The format is physicochemical.
Source text: The resultant mixture was filtered through a filter paper (Whatman No. 2) and then through a membrane filter (0.02 um, Millipore), the filtrate diluted 100 fold with deionised water and the solution thus obtained assayed for cardiac glycoside in a conventional manner using high performance liquid chromatography.
The conditions of data set [3]: background statement; cited from earlier work.

≈ marks a conversion by molar mass, not a printed value. Where only a bound is given, the exact number is not on record here.

With `C[C@H]1O[C@@H](O[C@H]2[C@@H](O)C[C@H](O[C@H]3[C@@H](O)C[C@H](O[C@H]4CC[C@@]5(C)[C@H](CC[C@@H]6[C@@H]5C[C@@H](O)[C@]5(C)[C@@H](C7=CC(=O)OC7)CC[C@]65O)C4)O[C@@H]3C)O[C@@H]2C)C[C@H](O)[C@@H]1O` [Digoxin, digoxin], the “T80 (time for 80% release)” value in data set [1] was greater than 60 min. In data set [2], this molecule returned a solubility at 8 h of 46 µg/mL (≈ 58.9 µM). The solubility thermodynamic at 8 h in data set [2] (read-out: Solubility, Non-complexed (percent)) was determined as 46 µg/mL (≈ 58.9 µM). Further, the “solubility of digoxin in water” value in data set [3] is roughly 0.005%.

One may read the solubility as the dissolved amount per volume that the medium holds. A low value points to a poorly soluble substance.
